Results taken from patent US9932381B2, “Exendin-4 derivatives as selective glucagon receptor agonists” (priority 2014, dated 2018).
Non-standard residues stand in square brackets, D forms with d. Residues, ends and D or L forms follow the SMILES beside them. Ala(4-thiazolyl) = N[C@@H](Cc1cscn1)C(=O)O; Chg = N[C@H](C(=O)O)C1CCCCC1; Tle = CC(C)(C)[C@H](N)C(=O)O; Nle = CCCC[C@H](N)C(=O)O

Key:
[1] = Solubility testing of exendin-4 derivatives (HPLC-UV of supernatant); type: physicochemical; settings: pH 7.4
Experimental: Prior to the testing of solubility and stability of a peptide batch, its content was determined. Therefore, two parameters were investigated, its purity (HPLC-UV) and the amount of salt load of the batch (ion chromatography).
HPLC-UV was performed after 2 h of gentle agitation from the supernatant, which was obtained by 20 min of centrifugation at 4000 rpm.

[2] = target: T1, human glucagon receptor (hGLUC R) (Homo sapiens, UniProt P47871); assay: cAMP response (HTRF) of HEK-293 cells stably expressing human glucagon receptor; type: cell-based; settings: Table 4; read-out: EC50 hGLUC R
T1 construct: expressed in transfected cells; host or cells: HEK-293
Experimental: (§1) cAMP content of cells was determined using a kit from Cisbio Corp. (cat. no. 62AM4PEC) based on HTRF (Homogenous Time Resolved Fluorescence). For preparation, cells were split into T175 culture flasks and grown overnight to near confluency in medium (DMEM/10% FBS). Medium was then removed and cells washed with PBS lacking calcium and magnesium, followed by proteinase treatment with accutase (Sigma-Aldrich cat. no. A6964). Detached cells were washed and resuspended in assay buffer (1×HBSS; 20 mM HEPES, 0.1% BSA, 2 mM IBMX) and cellular density determined. They were then diluted to 400000 cells/ml and 25 μl-aliquots dispensed into the wells of 96-well plates. For measurement, 25 μl of test compound in assay buffer was added to the wells, followed by incubation for 30 minutes at room temperature.

[3] = target: T2, human GLP-1 receptor (hGLP-1 R) (Homo sapiens, UniProt P43220); assay: cAMP response (HTRF) of HEK-293 cells stably expressing human GLP-1 receptor; type: cell-based; settings: Table 4
T2 construct: expressed in transfected cells; host or cells: HEK-293
Experimental: as §1, with “temperature. After addition of HTRF reagents diluted in lysis buffer (kit components), the plates were incubated for 1 hr, followed by measurement of the fluorescence ratio at 665/620 nm. In vitro potency of agonists was quantified by determining the concentrations that caused 50% activation of maximal response (EC50).” for “temperature.”

T1 sequence (P47871 26-477): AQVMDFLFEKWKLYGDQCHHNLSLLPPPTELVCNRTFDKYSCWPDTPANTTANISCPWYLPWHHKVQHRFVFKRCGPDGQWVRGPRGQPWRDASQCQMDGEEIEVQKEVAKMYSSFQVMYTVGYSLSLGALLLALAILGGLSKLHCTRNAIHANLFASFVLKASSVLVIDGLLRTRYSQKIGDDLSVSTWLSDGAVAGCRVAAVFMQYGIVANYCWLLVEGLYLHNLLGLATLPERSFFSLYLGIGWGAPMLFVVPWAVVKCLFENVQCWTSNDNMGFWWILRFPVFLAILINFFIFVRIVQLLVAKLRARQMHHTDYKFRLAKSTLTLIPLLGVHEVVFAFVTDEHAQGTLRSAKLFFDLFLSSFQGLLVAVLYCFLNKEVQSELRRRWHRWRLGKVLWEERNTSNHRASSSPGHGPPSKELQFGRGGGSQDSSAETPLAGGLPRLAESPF
T2 sequence (P43220 24-463): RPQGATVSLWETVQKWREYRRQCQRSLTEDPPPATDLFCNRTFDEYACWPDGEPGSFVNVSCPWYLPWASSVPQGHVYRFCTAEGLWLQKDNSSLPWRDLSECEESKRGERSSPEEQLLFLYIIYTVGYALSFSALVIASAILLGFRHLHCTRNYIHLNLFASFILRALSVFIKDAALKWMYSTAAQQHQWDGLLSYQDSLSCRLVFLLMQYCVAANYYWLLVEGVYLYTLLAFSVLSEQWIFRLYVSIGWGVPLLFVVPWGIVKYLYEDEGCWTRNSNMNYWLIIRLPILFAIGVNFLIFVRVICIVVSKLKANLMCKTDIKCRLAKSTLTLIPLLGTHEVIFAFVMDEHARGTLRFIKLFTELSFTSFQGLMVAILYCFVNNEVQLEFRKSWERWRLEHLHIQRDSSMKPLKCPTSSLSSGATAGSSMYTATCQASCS

For `CC[C@H](C)[C@H](NC(=O)[C@H](Cc1ccccc1)NC(=O)[C@H](CCC(=O)O)NC(=O)[C@H](CCC(N)=O)NC(=O)[C@H](C)NC(=O)[C@H](CCCNC(=N)N)NC(=O)[C@H](CCCNC(=N)N)NC(=O)[C@H](CO)NC(=O)[C@H](CCC(=O)O)NC(=O)[C@H](CC(C)C)NC(=O)[C@H](CCC(N)=O)NC(=O)[C@H](CCCCN)NC(=O)[C@H](CO)NC(=O)[C@@H](NC(=O)[C@H](CC(=O)O)NC(=O)[C@H](CO)NC(=O)[C@@H](NC(=O)[C@H](Cc1ccccc1)NC(=O)[C@@H](NC(=O)CNC(=O)[C@H](CCC(N)=O)NC(=O)[C@H](CO)NC(=O)[C@@H](N)Cc1cscn1)[C@@H](C)O)[C@@H](C)O)C(C)C)C(=O)N[C@@H](CCC(=O)O)C(=O)N[C@@H](Cc1c[nH]c2ccccc12)C(=O)N[C@@H](CC(C)C)C(=O)N[C@@H](CC(C)C)C(=O)N[C@@H](C)C(=O)NCC(=O)NCC(=O)N1CCC[C@H]1C(=O)N[C@@H](CCC(=O)O)C(=O)N[C@@H](CO)C(=O)NCC(=O)N[C@@H](C)C(=O)N1CCC[C@H]1C(=O)N1CCC[C@H]1C(=O)N1CCC[C@H]1C(=O)N[C@@H](CO)C(=O)O` [SEQ ID NO 9, Tza-SQGTFTSDVSKQLESRRAQEFIEWLLAGGPESGAPPPS-OH] (H-[Ala(4-thiazolyl)]SQGTFTSDVSKQLESRRAQEFIEWLLAGGPESGAPPPS-OH), the solubility at 2 h [1] was > 10000 µg/mL and the EC50 [2] was 2.2 pM.
In the case of `CC[C@H](C)[C@H](NC(=O)[C@H](Cc1ccccc1)NC(=O)[C@H](CCC(=O)O)NC(=O)[C@H](CCC(N)=O)NC(=O)[C@H](C)NC(=O)[C@H](CCCNC(=N)N)NC(=O)[C@H](CCCNC(=N)N)NC(=O)[C@H](CO)NC(=O)[C@H](CCC(=O)O)NC(=O)[C@H](CC(C)C)NC(=O)[C@H](CCC(N)=O)NC(=O)[C@H](CCCCN)NC(=O)[C@H](CO)NC(=O)[C@H](CC(C)C)NC(=O)[C@H](CC(=O)O)NC(=O)[C@H](CO)NC(=O)[C@@H](NC(=O)[C@H](Cc1ccccc1)NC(=O)[C@@H](NC(=O)CNC(=O)[C@H](CCC(N)=O)NC(=O)[C@H](CO)NC(=O)[C@@H](N)Cc1cscn1)[C@@H](C)O)[C@@H](C)O)C(=O)N[C@@H](CCC(=O)O)C(=O)N[C@@H](Cc1c[nH]c2ccccc12)C(=O)N[C@@H](CC(C)C)C(=O)N[C@@H](CC(C)C)C(=O)N[C@@H](C)C(=O)N[C@H](C(=O)NCC(=O)N1CCC[C@H]1C(=O)N[C@@H](CCC(=O)O)C(=O)N[C@@H](CO)C(=O)NCC(=O)N[C@@H](C)C(=O)N1CCC[C@H]1C(=O)N1CCC[C@H]1C(=O)N1CCC[C@H]1C(=O)N[C@@H](CO)C(=O)O)[C@@H](C)O` [SEQ ID NO 12, Tza-SQGTFTSDLSKQLESRRAQEFIEWLLATGPESGAPPPS-OH] (H-[Ala(4-thiazolyl)]SQGTFTSDLSKQLESRRAQEFIEWLLATGPESGAPPPS-OH), the EC50 [3] is reported as 20 nM and the EC50 [2] is reported as 1 pM.
For `CCCC[C@H](NC(=O)[C@H](CCC(N)=O)NC(=O)[C@H](CCCCN)NC(=O)[C@H](CO)NC(=O)[C@@H](NC(=O)[C@H](CC(=O)O)NC(=O)[C@H](CO)NC(=O)[C@@H](NC(=O)[C@H](Cc1ccccc1)NC(=O)[C@@H](NC(=O)CNC(=O)[C@H](CCC(N)=O)NC(=O)[C@H](CO)NC(=O)[C@@H](N)Cc1cscn1)[C@@H](C)O)[C@@H](C)O)C1CCCCC1)C(=O)N[C@@H](CCC(=O)O)C(=O)N[C@@H](CO)C(=O)N[C@@H](CCCNC(=N)N)C(=O)N[C@@H](CCCNC(=N)N)C(=O)N[C@@H](C)C(=O)N[C@@H](CCC(N)=O)C(=O)N[C@@H](CC(=O)O)C(=O)N[C@@H](Cc1ccccc1)C(=O)N[C@H](C(=O)N[C@@H](CCC(=O)O)C(=O)N[C@@H](Cc1c[nH]c2ccccc12)C(=O)N[C@@H](CC(C)C)C(=O)N[C@@H](CC(C)C)C(=O)N[C@@H](C)C(=O)N[C@H](C(=O)NCC(=O)N1CCC[C@H]1C(=O)N[C@@H](CCC(=O)O)C(=O)N[C@@H](CO)C(=O)NCC(=O)N[C@@H](C)C(=O)N1CCC[C@H]1C(=O)N1CCC[C@H]1C(=O)N1CCC[C@H]1C(=O)N[C@@H](CO)C(=O)O)[C@@H](C)O)[C@@H](C)CC` [SEQ ID NO 20, Tza-S-Q-G-T-F-T-S-D-Chg-S-K-Q-Nle-ESRRAQDFIEWLLATGPESGAPPPS-OH] (H-[Ala(4-thiazolyl)]SQGTFTSD[Chg]SKQ[Nle]ESRRAQDFIEWLLATGPESGAPPPS-OH; N-terminus assumed), the “Solubility (pH7.4) [mg/ml]” value ([1]; 2 h) was >10.0 mg/ml.
In the case of `CC[C@H](C)[C@H](NC(=O)[C@H](Cc1ccccc1)NC(=O)[C@H](CC(=O)O)NC(=O)[C@H](CCC(N)=O)NC(=O)[C@H](C)NC(=O)[C@H](CCCNC(=N)N)NC(=O)[C@H](CCCNC(=N)N)NC(=O)[C@H](CO)NC(=O)[C@H](CCC(=O)O)NC(=O)[C@H](CC(C)C)NC(=O)[C@H](CCC(N)=O)NC(=O)[C@H](CCCCN)NC(=O)[C@H](CO)NC(=O)[C@@H](NC(=O)[C@H](CC(=O)O)NC(=O)[C@H](CO)NC(=O)[C@@H](NC(=O)[C@H](Cc1ccccc1)NC(=O)[C@@H](NC(=O)CNC(=O)[C@H](CCC(N)=O)NC(=O)[C@H](CO)NC(=O)[C@@H](N)Cc1cscn1)[C@@H](C)O)[C@@H](C)O)C1CCCCC1)C(=O)N[C@@H](CCC(=O)O)C(=O)N[C@@H](Cc1c[nH]c2ccccc12)C(=O)N[C@@H](CC(C)C)C(=O)N[C@@H](CC(C)C)C(=O)N[C@@H](C)C(=O)N[C@H](C(=O)NCC(=O)N1CCC[C@H]1C(=O)N[C@@H](CCC(=O)O)C(=O)N[C@@H](CO)C(=O)NCC(=O)N[C@@H](C)C(=O)N1CCC[C@H]1C(=O)N1CCC[C@H]1C(=O)N1CCC[C@H]1C(=O)N[C@@H](CO)C(=O)O)[C@@H](C)O` [SEQ ID NO 23, Tza-S-Q-G-T-F-T-S-D-Chg-SKQLESRRAQDFIEWLLATGPESGAPPPS-OH] (H-[Ala(4-thiazolyl)]SQGTFTSD[Chg]SKQLESRRAQDFIEWLLATGPESGAPPPS-OH; N-terminus assumed), the solubility at 2 h [1] is reported as > 10000 µg/mL.
With `CCCC[C@H](NC(=O)[C@H](CCC(N)=O)NC(=O)[C@H](CCCCN)NC(=O)[C@H](CO)NC(=O)[C@@H](NC(=O)[C@H](CC(=O)O)NC(=O)[C@H](CO)NC(=O)[C@@H](NC(=O)[C@H](Cc1ccccc1)NC(=O)[C@@H](NC(=O)CNC(=O)[C@H](CCC(N)=O)NC(=O)[C@H](CO)NC(=O)[C@@H](N)Cc1cscn1)[C@@H](C)O)[C@@H](C)O)C1CCCCC1)C(=O)N[C@@H](CCC(=O)O)C(=O)N[C@@H](CO)C(=O)N[C@@H](CCCNC(=N)N)C(=O)N[C@@H](CCCNC(=N)N)C(=O)N[C@@H](C)C(=O)N[C@@H](CCC(N)=O)C(=O)N[C@@H](CCC(=O)O)C(=O)N[C@@H](Cc1ccccc1)C(=O)N[C@H](C(=O)N[C@@H](CCC(=O)O)C(=O)N[C@@H](Cc1c[nH]c2ccccc12)C(=O)N[C@@H](CC(C)C)C(=O)N[C@@H](CC(C)C)C(=O)N[C@@H](C)C(=O)N[C@H](C(=O)NCC(=O)N1CCC[C@H]1C(=O)N[C@@H](CCC(=O)O)C(=O)N[C@@H](CO)C(=O)NCC(=O)N[C@@H](C)C(=O)N1CCC[C@H]1C(=O)N1CCC[C@H]1C(=O)N1CCC[C@H]1C(=O)N[C@@H](CO)C(=O)O)[C@@H](C)O)[C@@H](C)CC` [SEQ ID NO 24, Tza-S-Q-G-T-F-T-S-D-Chg-S-K-Q-Nle-ESRRAQEFIEWLLATGPESGAPPPS-OH] (H-[Ala(4-thiazolyl)]SQGTFTSD[Chg]SKQ[Nle]ESRRAQEFIEWLLATGPESGAPPPS-OH) the solubility at 2 h [1] was > 10000 µg/mL.
In the case of `CCCC[C@H](NC(=O)[C@H](CCC(N)=O)NC(=O)[C@H](CCCCN)NC(=O)[C@H](CO)NC(=O)[C@@H](NC(=O)[C@H](CC(=O)O)NC(=O)[C@H](CO)NC(=O)[C@@H](NC(=O)[C@H](Cc1ccccc1)NC(=O)[C@@H](NC(=O)CNC(=O)[C@H](CCC(N)=O)NC(=O)[C@H](CO)NC(=O)[C@@H](N)Cc1cscn1)[C@@H](C)O)[C@@H](C)O)C(C)(C)C)C(=O)N[C@@H](CCC(=O)O)C(=O)N[C@@H](CO)C(=O)N[C@@H](CCCNC(=N)N)C(=O)N[C@@H](CCCNC(=N)N)C(=O)N[C@@H](C)C(=O)N[C@@H](CCC(N)=O)C(=O)N[C@@H](CCC(=O)O)C(=O)N[C@@H](Cc1ccccc1)C(=O)N[C@H](C(=O)N[C@@H](CCC(=O)O)C(=O)N[C@@H](Cc1c[nH]c2ccccc12)C(=O)N[C@@H](CC(C)C)C(=O)N[C@@H](CC(C)C)C(=O)N[C@@H](C)C(=O)N[C@H](C(=O)NCC(=O)N1CCC[C@H]1C(=O)N[C@@H](CCC(=O)O)C(=O)N[C@@H](CO)C(=O)NCC(=O)N[C@@H](C)C(=O)N1CCC[C@H]1C(=O)N1CCC[C@H]1C(=O)N1CCC[C@H]1C(=O)N[C@@H](CO)C(=O)O)[C@@H](C)O)[C@@H](C)CC` [SEQ ID NO 25, Tza-S-Q-G-T-F-T-S-D-Tle-S-K-Q-Nle-ESRRAQEFIEWLLATGPESGAPPPS-OH] (H-[Ala(4-thiazolyl)]SQGTFTSD[Tle]SKQ[Nle]ESRRAQEFIEWLLATGPESGAPPPS-OH; N-terminus assumed), the solubility at 2 h [1] is reported as > 10000 µg/mL.
